In assay [1] the target is T1, human cloned 5-HT6 receptors (Homo sapiens, UniProt P50406).
T1 construct: expressed in transfected cells; host or cells: HeLa cells (membranes)
Put plainly: Cyclase assay (cAMP production in membranes of HeLa 5HT6 cells, antagonism of 5-HT). Type of assay: biochemical. The following applies: cyclase assay with 5-HT at 4xEC50, read-out: fpKi (functional pKi, antagonist potency) (converted). The protocol: 0.5 μl of test compound in 100% dimethylsulfoxide (DMSO) was added to a white, solid 384 well assay plate (for dose response measurements the top of the concentration range is 7.5 μM final). 10 μl of washed membranes of HeLa 5HT6 cells (for preparation see WO 98/27081) in basic buffer (50 mM HEPES pH 7.4 (KOH), 1 mM MgCl2, 100 mM NaCl, 1 μl/ml 3-isobutyl-1-methylxanthine (IBMX) (Sigma-Aldrich)) was added to all wells followed by 10 μl 2×ATP buffer (100 μl/ml ATP and 1 μl/ml 3-Isobutyl-1-methylxanthine (IBMX) (Sigma-Aldrich)) with 5-HT (at a concentration equivalent to a dose response of 4×EC50). The resultant mixture was then incubated at room temperature for 30-45 minutes to allow cAMP production.
cAMP production was then measured using the DiscoveRx™ HitHunter™ chemiluminescence cAMP assay kit (DiscoveRx Corporation, 42501 Albrae Street, Fremont, Calif. 94538; Product Code: 90-0004L) or any other suitable cAMP measurement assay.
IC50 values were estimated from arbitrary designated unit (ADU) measurements from a Perkin Elmer Viewlux instrument using a four parameter logistic curve fit within EXCEL (Bowen, W. P. and Jerman, J. C. (1995), Nonlinear regression using spreadsheets. Trends in Pharmacol. Sci., 16, 413-417). Functional Ki values were calculated using the method of Cheng, Y. C. and Prussof, W. H. (Biochemical Pharmacol (1973) 22 3099-3108). pIC50 and fpKi are the negative log 10 of the molar IC50 and functional Ki respectively.
(In general: cAMP levels reflect the balance of adenylyl cyclase and phosphodiesterase activity.)

In assay [2] the target is T2, human cannabinoid CB2 receptor (Homo sapiens, UniProt P34972).
T2 construct: expressed in transfected cells; host or cells: Saccharomyces cerevisiae strain MMY23
T2 sequence (P34972 whole entry): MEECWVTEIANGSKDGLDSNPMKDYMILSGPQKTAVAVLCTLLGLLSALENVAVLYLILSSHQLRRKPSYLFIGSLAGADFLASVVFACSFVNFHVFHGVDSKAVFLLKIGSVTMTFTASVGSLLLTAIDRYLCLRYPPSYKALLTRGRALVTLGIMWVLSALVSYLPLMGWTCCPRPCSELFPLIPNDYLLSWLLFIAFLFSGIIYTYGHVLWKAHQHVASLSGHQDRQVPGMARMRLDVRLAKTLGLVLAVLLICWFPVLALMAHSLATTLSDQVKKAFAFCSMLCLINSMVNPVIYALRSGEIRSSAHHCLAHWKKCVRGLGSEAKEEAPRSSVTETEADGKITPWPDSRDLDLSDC
Put plainly: Cannabinoid CB2 receptor agonist activity in yeast cells expressing the human CB2 receptor (FDGlu fluorescence). Format: cell-based. The following applies: 24 hours at 30° C., read-out: pEC50 at the CB2 receptor (agonist activity) (converted). The text has this:
Yeast (Saccharomyces cerevisiae) cells expressing the human cannabinoid CB2 receptor were generated by integration of an expression cassette into the ura3 chromosomal locus of yeast strain MMY23. This cassette consisted of DNA sequence encoding the human CB2 receptor flanked by the yeast GPD promoter to the 5′ end of CB2 and a yeast transcriptional terminator sequence to the 3′ end of CB2. MMY23 expresses a yeast/mammalian chimeric G-protein alpha subunit in which the C-terminal 5 amino acids of Gpa1 are replaced with the C-terminal 5 amino acids of human Gαi1/23 (as described in Brown et al. (2000), Yeast 16:11-22). Cells were grown at 30° C. in liquid Synthetic Complete (SC) yeast media (Guthrie and Fink (1991), Methods in Enzymology, Vol. 194) lacking uracil, tryptophan, adenine and leucine to late logarithmic phase (approximately 6 OD600/ml).
Agonists were prepared as 10 mM solutions in DMSO. EC50 values (the concentration required to produce 50% maximal response) were estimated using 4 fold dilutions of between 3- and 5-fold (BiomekFX, Beckman) into DMSO. Agonist solutions in DMSO (1% final assay volume) were transferred into black microtitre plates from NUNC Greiner (384-well). Cells were suspended at a density of 0.2 OD600/ml in SC media lacking histidine, uracil, tryptophan, adenine and leucine and supplemented with 10 mM 3-aminotriazole, 0.1M sodium phosphate pH 7.0, and 120 μM fluorescein di-β-D-glucopyranoside (FDGlu). This mixture (50 ul per well) was added to agonist in the assay plates (Multidrop 384, Labsystems). After incubation at 30° C. for 24 hours, fluorescence resulting from degradation of FDGlu to fluorescein due to exoglucanase, an endogenous yeast enzyme produced during agonist-stimulated cell growth, was determined using a fluorescence microtitre plate reader (Tecan Spectrofluor or LJL Analyst excitation wavelength: 485 nm; emission wavelength: 535 nm). Fluorescence was plotted against compound concentration and iteratively curve fitted using a four parameter fit to generate a concentration effect value.
Efficacy (Emax) was calculated from the equation
Emax=Max[compound X]−Min[compound X]/Max[HU210]−Min[HU210]×100% • where Max[compound X] and Min[compound X] are the fitted maximum and minimum respectively from the concentration effect curve for compound X, and Max[HU210] and Min[HU210] are the fitted maximum and minimum respectively from the concentration effect curve for (6aR,10aR)-3-(1,1′-Dimethylheptyl)-6a,7,10,10a-tetrahydro-1-hydroxy-6,6-dimethyl-6H-dibenzo[b,d]pyran-9-methanol (HU210; available from Tocris). Equieffective molar ratio (EMR) values were calculated from the equation
EMR=EC50[compound X]/EC50[HU210] • Where EC50 [compound X] is the EC50 of compound X and EC50 [HU210] is the EC50 of HU210. • pEC50 is the negative log of the EC50.

Structures can show the parent of a compound that is named as a salt.

T1 sequence (P50406 whole entry): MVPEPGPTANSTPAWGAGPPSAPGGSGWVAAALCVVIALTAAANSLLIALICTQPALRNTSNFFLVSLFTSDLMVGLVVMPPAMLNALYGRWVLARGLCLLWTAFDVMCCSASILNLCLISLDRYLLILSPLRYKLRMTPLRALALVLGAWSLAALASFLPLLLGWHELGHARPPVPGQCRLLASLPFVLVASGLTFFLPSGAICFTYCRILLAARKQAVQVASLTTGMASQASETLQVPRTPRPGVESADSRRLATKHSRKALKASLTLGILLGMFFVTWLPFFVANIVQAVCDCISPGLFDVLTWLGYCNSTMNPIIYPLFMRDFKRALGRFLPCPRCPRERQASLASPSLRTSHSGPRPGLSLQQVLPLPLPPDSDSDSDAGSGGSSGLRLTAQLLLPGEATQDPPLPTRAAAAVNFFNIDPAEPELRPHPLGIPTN

`O=S1(=O)CCN(Cc2cccc3cc(S(=O)(=O)c4ccccc4)cnc23)CC1` [Example 32, 8-[(1,1-Dioxido-4-thiomorpholinyl)methyl]-3-(phenylsulfonyl)quinoline hydrochloride]: the Ki in assay [1] was at most 1000 nM. In assay [2], the EC50 was under 1000 nM.

The values above are taken from patent US20090012056A1, “Quinoline Compounds Capable of Binding the Cb2 and/or the 5-Ht6 Receptor” (GLAXO GROUP LIMITED, priority 2005, published 2009).
